Tests used:
[1] = test system: full-length Cx45 (mCx45-Rluc) interaction with Venus–CaM; assay: BRET assay of CaM–Cx45 interaction in live HEK293 cells; type: cell-based, mouse (Cx45); rat (CaM); settings: 50 μM BAPTA-AM
[2] = test system: electrical uncoupling (gap junctions), amphibian embryonic cells, crayfish axons; settings: cited from earlier work; for effect on uncoupling: Xenopus embryonic cells, ref [73], crayfish axons, ref [74],[75]
CaM [3] = target: T1, CaM (Rattus norvegicus, UniProt P0DP29); settings: earlier connexin peptide studies; ref [49]; cited from earlier work
CaM [4] = settings: α-family; ref [34],[49]; cited from earlier work
CaM [5] = target: T1, CaM; settings: complex formation; ref [49]; listed as Cx50-derived peptide; cited from earlier work

In the case of `CC(=O)OCOC(=O)CN(CC(=O)OCOC(C)=O)c1ccccc1OCCOc1ccccc1N(CC(=O)OCOC(C)=O)CC(=O)OCOC(C)=O` [BAPTA-AM], the “intracellular Ca2+ after treatment” value [1] is reported as ~ 0.27 nM and the “BRET signal (ratio 525/460 nm) after treatment” value ([1]; 20 min) is reported as ~ 0.03.
In the case of `Cl.NCCCCCCNS(=O)(=O)c1cccc2c(Cl)cccc12` [W7, N-(6-aminohexyl)-5-chloro-1-naphthalenesulfonamide hydrochloride], the effect on uncoupling [2] is given as “prevent uncoupling”.
For `Clc1ccc(C(c2ccc(Cl)cc2)n2cc[n+](CC(OCc3ccc(Cl)cc3Cl)c3ccc(Cl)cc3Cl)c2)cc1` (centres unmarked) [calmidazolium], the effect on uncoupling [2] is listed as “prevent uncoupling”.
In the case of `CN1CCN(CCCN2c3ccccc3Sc3ccc(C(F)(F)F)cc32)CC1` [trifluoperazine (TFP), trifluoperazine], the “effect on electrical uncoupling of amphibian embryonic cells” value ([2]; ref [72]) is listed as “protected amphibian embryonic cells from electrical uncoupling”.
In the case of “Cx43p136–158: α-family connexin Cx43 peptide”, the “chemical shift change pattern of CaM (literature)” value (CaM [3]) is given as “localized change” and the “binding mode to CaM (literature)” value (CaM [4]) is given as “compact form”.
In the case of “Cx44p132–153: α-family connexin Cx44 peptide”, the “binding mode to CaM (literature)” value (CaM [4]) is listed as “compact form”.
In the case of “Cx50p141–166: α-family connexin Cx50 peptide (FRLEGTLLRTYICHIIFKTLFEVGFI; UniProt P48165 141-166, looked up, fragment)”, the “chemical shift change pattern of CaM (literature)” value (CaM [3]) is given as “localized change”, the “decrease in hydrodynamic radius of CaM” value (CaM [5]) is given as “decreased significantly” and the “binding mode to CaM (literature)” value (CaM [4]) is given as “embraced compact form”.

Source: paper PMC5976250 (The Biochemical journal, 2017)
